The results in this text go back to US11453667B2, “Pyridone-pyrimidine derivative acting as KRASG12C mutein inhibitor” (MEDSHINE DISCOVERY INC., priority 2018, dated 2022).

pIC50: −log10 of the molar value.

Data set [1] is described as follows: Liver microsome stability test, mouse. Format: in vitro ADME. Particulars: mouse liver microsomes, 0.5 mg protein/mL; read-out: mouse T1/2. The procedure:
(§1) To test the metabolic stability of the test article in mice, rats and human liver microsomes.
(§2) 1. 10 μL of the test or control article working solution was added to all plates (T0, T5, T10, T20, T30, T60, NCF60).
(§3) 2. Liver microsome solution was dispensed into a 96-well plate at 680 μL/well, and addition was performed on each plate at 80 μL/well, and the above-mentioned incubation plate was placed at 37° C. for pre-incubation for about 10 minutes.
(§4) 4. After the pre-incubation, the NADPH regeneration system working solution was dispensed into the 96-well plate at 90 μL/well, and addition was performed on each plate at 10 μL/well to start the reaction.
(§5) 5. Incubation was performed for an appropriate time (e.g., 5, 10, 20, 30 and 60 minutes).
(§6) 6. 300 μL of the stopping solution (refrigerated at 4° C., containing 100 ng/mL of tolbutamide and 100 ng/mL of labetalol) was respectively added to each sample well.
(§7) T1/2 and Clint(mic) were calculated by the following formula.
(§8) Ct is the concentration at time t, with t being the incubation time; C0 is the concentration at 0; Ke is the elimination rate constant; Clint(mic) is the intrinsic clearance rate of liver microsomes; and Clint(liver) is the hepatic intrinsic clearance rate. CLint(mic)=0.693/half-life/mg microsomal protein per mL (microsome concentration during incubation) CLint(liver)=CLint(mic)×mg microsomal protein/g liver weight×ratio of liver weight to body weight
A general note: Liver microsomes are a subcellular fraction often used to study metabolism.

Data set [2] can be described thus: Liver microsome stability test, rat. Format: in vitro ADME. Conditions: rat liver microsomes, 0.5 mg protein/mL; read-out: rat T1/2. The procedure:
as §1, §2, §3, §4, §5, §6, §7, §8

The subject of data set [3] is NCI-H358 human non-small cell lung cancer cells with KRAS G12C mutation. Nature of the data set: Cell experiment: anti-proliferative activity, CellTiter-Glo, NCI-H358. Format: cell-based. Conditions: Homo sapiens, NCI-H358, 120 h, 5 days culture. The procedure:
(§9) This experiment is intended to verify that the compounds of the present invention have an inhibitory effect on the proliferation of NCI-H358 human non-small cell lung cancer cells with KRAS G12C mutation, MIA PaCa2 human pancreatic cancer cells with KRAS G12C mutation and wild-type A375 human malignant melanoma cells.
(§10) 40 μl of phosphate buffer was added to the peripheral wells of three 384-well microplates respectively, and 40 μl of cell suspension to be tested was added to the other wells of each plate respectively (plate 1: NCI-H358 cell suspension containing 500 NCI-H358 cells; plate 2: MIAPaCa2 cell suspension containing 300 MIAPaCa2 cells; plate 3: A375 cell suspension containing 300 A375 cells). The three cell plates were then placed in a carbon dioxide incubator and incubated overnight. Echo was used to perform a 3-fold gradient dilution of the compounds to be tested, and each compound was diluted with 10 concentration gradients (diluted from 50 μM to 0.003 μM), 100 nl of which was respectively added to the corresponding wells of the cell plates; after dosing, 40 μL of phosphate buffer was added to each well of rows A and P and columns 1 and 24, and then the cell plates were put back to the carbon dioxide incubator for culturing for 5 days. 20 μl of Promega CellTiter-Glo reagent per well was added to the cell plates, which was shaken at room temperature for 10 minutes in the dark to stabilize the luminescence signal. A PerkinElmer Envision multi-label analyzer was used for reading.
(§11) Data analysis: IC50 results were analyzed by GraphPad Prism 5.0 software […].
A general note: Cellular ATP, detected with luciferase, serves as a proxy for viable cell number.

In data set [4] the test system is MIA PaCa2 human pancreatic cancer cells with KRAS G12C mutation. Nature of the data set: Cell experiment: anti-proliferative activity, CellTiter-Glo, MIA PaCa2. Conditions: 5 days culture. Format: cell-based. As for the experimental part:
as §9, §10, §11

Data set [5] concerns wild-type A375 human malignant melanoma cells. Briefly: Cell experiment: anti-proliferative activity, CellTiter-Glo, A375. In kind it is cell-based. Conditions: Homo sapiens, A-375, 120 h, 5 days culture. As for the experimental part: as §9, §10, §11
A short description of data set [6]: Liver microsome stability test, human. Conditions: human liver microsomes, 0.5 mg protein/mL; read-out: Human T1/2. In kind it is in vitro ADME. As for the experimental part:
as §1, §2, §3, §4, §5, §6, §7, §8

The subject of data set [7] is human pancreatic cancer MIA-PaCa2 cell. Briefly: In vivo drug efficacy test (1): subcutaneous xenograft tumor model. More on the design: species or system BALB/c nude mice. Particulars: for TGI: day 20. As for the experimental part:
To evaluate the in vivo efficacy of the test compounds in a subcutaneous xenograft tumor model of human pancreatic cancer MIA-PaCa2 cell.
BALB/c nude mice, female, 6-8 weeks old, weighing approximately 18-22 grams. Each mouse was subcutaneously inoculated with 0.2 mL (1×10^7) of MIA-PaCa2 cells (plus matrigel, with the volume ratio being 1:1) on the right back. The administration was performed when the average tumor volume reached about 169 cubic millimeters. The tumor volume was measured twice a week, with the volume measured in cubic millimeters, and calculated by the following formula: V=0.5 a×b^2, where a and b were the long and short diameters of the tumor, respectively. The tumor suppressive effect of the compounds was evaluated by TGI (%). TGI (%) reflects the tumor growth inhibition rate. Calculation of TGI (%): TGI (%)=[(1−(average tumor volume at the end of administration in a treatment group−average tumor volume at the beginning of administration in the treatment group))/(average tumor volume at the end of treatment in the solvent control group−average tumor volume at the beginning of treatment in the solvent control group)]×100%.

Setting [8] is: Homo sapiens, MIA PaCa-2, 120 h.

What is called pIC50 is −log10 of the IC50, conventionally taken in molar units. For `C=CC(=O)N1CCN(c2nc(N3CC(N(CC)CC)C3)nc3c(=O)n(-c4c(N)cccc4F)c(C(F)(F)F)cc23)CC1` (single isomer, unassigned) [Example 32], the half-life in data set [1], in data set [2] and in data set [6] was more than 2.42 h throughout. Also, the pIC50 in data set [3] was 6.35; in data set [4] (setting [8]), 6.43; in data set [5], 4.53.
As for `C=CC(=O)N1CCN(c2nc(N3CC(N(CC)CC)C3)nc3c(=O)n(-c4c(O)cccc4F)c(C(F)(F)F)cc23)CC1` [Example 9], the half-life in data set [1] was more than 2.42 h; in data set [2] it was 0.772 h; in data set [6], more than 2.42 h.
One may read the TGI as how far tumour growth fell short of that in controls. `C=CC(=O)N1CCN(c2ncnc3c(=O)n(-c4c(O)cccc4F)c(C(F)(F)F)cc23)CC1` [Example 2]: the half-life in data set [1], in data set [2] and in data set [6] was more than 2.42 h throughout. Moreover, the “Tumor volume (day 20)” value in data set [7] (50 mg/kg orally daily) is 457 ± 94 mm^3; in data set [7] (200 mg/kg orally daily), 307 ± 61 mm^3. In addition, the figures for the TGI in data set [7] (50 mg/kg orally daily) and in data set [7] (200 mg/kg orally daily) were 35% and 69%, respectively. Also, the negative logarithm of the IC50 (pIC50) in data set [3] was 5.27; in data set [4] (setting [8]) it was 5.19; in data set [5] it was less than 4.30.
For the compound `C=CC(=O)N1CCN(c2nc(N3CC(N(CC)CC)C3)nc3c(=O)n(-c4c(C)ccc(N)c4C)c(C(F)(F)F)cc23)CC1` [Example 36], the half-life in data set [1], in data set [2] and in data set [6] was more than 2.42 h throughout. Moreover, the pIC50 in data set [4] is 5.95.
